Experiments:
Type in all cases: functional
NCI-H322M [1] = experiment: Growth inhibition of human NCI-H322M cells incubated for 48 hrs by sulforhodamine B assay; settings: for CC50: read-out: LC50 (the source's name)
[2] = Growth inhibition of human HCT15 cells incubated for 48 hrs by sulforhodamine B assay; settings: HCT-15, 48 h; for CC50: read-out: LC50 (the source's name)
KM12 = experiment: Growth inhibition of human KM12 cells incubated for 48 hrs by sulforhodamine B assay; settings: KM12, 48 h; for CC50: read-out: LC50 (the source's name)
[3] = Growth inhibition of human SW620 cells incubated for 48 hrs by sulforhodamine B assay; settings: SW-620, 48 h; for CC50: read-out: LC50 (the source's name)
[4] = Growth inhibition of human SF539 cells incubated for 48 hrs by sulforhodamine B assay; settings: SF-539, 48 h; for CC50: read-out: LC50 (the source's name)
[5] = Growth inhibition of human SNB75 cells incubated for 48 hrs by sulforhodamine B assay; settings: SNB-75, 48 h; for CC50: read-out: LC50 (the source's name)
U-251 = experiment: Growth inhibition of human U251 cells incubated for 48 hrs by sulforhodamine B assay; settings: U-251, 48 h; for CC50: read-out: LC50 (the source's name)
SK-MEL-28 = experiment: Growth inhibition of human SK-MEL-28 cells incubated for 48 hrs by sulforhodamine B assay; settings: SK-MEL-28, 48 h; for CC50: read-out: LC50 (the source's name)
[6] = Growth inhibition of human OVCAR5 cells incubated for 48 hrs by sulforhodamine B assay; settings: OVCAR-5, 48 h; for CC50: read-out: LC50 (the source's name)
[7] = Growth inhibition of human OVCAR8 cells incubated for 48 hrs by sulforhodamine B assay; settings: OVCAR-8, 48 h; for CC50: read-out: LC50 (the source's name)
[8] = Growth inhibition of human NCI-ADR-RES cells incubated for 48 hrs by sulforhodamine B assay; settings: for CC50: read-out: LC50 (the source's name)
A498 = experiment: Growth inhibition of human A498 cells incubated for 48 hrs by sulforhodamine B assay; settings: A498, 48 h; for CC50: read-out: LC50 (the source's name)
ACHN = experiment: Growth inhibition of human ACHN cells incubated for 48 hrs by sulforhodamine B assay; settings: for CC50: read-out: LC50 (the source's name)
[9] = Growth inhibition of human RXF393 cells incubated for 48 hrs by sulforhodamine B assay; settings: RXF 393, 48 h; for CC50: read-out: LC50 (the source's name)
[10] = Growth inhibition of human UO31 cells incubated for 48 hrs by sulforhodamine B assay; settings: UO-31, 48 h; for CC50: read-out: LC50 (the source's name)
[11] = Growth inhibition of human colon cancer cells after 48 hrs by sulforhodamine B assay; settings: Cancer cell lines; for CC50: read-out: LC50 (the source's name)
[12] = Growth inhibition of human CNS cancer cells after 48 hrs by sulforhodamine B assay; settings: Cancer cell lines; for CC50: read-out: LC50 (the source's name)
[13] = Growth inhibition of human breast cancer cells after 48 hrs by sulforhodamine B assay; settings: Cancer cell lines; for CC50: read-out: LC50 (the source's name)
[14] = Cytotoxicity against human RPMI8226 cells assessed as cell growth at 10 uM incubated for 48 hrs by sulforhodamine B assay; settings: RPMI-8226, 48 h, read-out: Activity
SR [15] = experiment: Cytotoxicity against human SR cells assessed as cell growth at 10 uM incubated for 48 hrs by sulforhodamine B assay; settings: read-out: Activity
NCI-H522 = experiment: Cytotoxicity against human NCI-H522 cells assessed as cell growth at 10 uM incubated for 48 hrs by sulforhodamine B assay; settings: NCI-H522, 48 h, read-out: Activity
MDA-MB-468 = experiment: Cytotoxicity against human MDA-MB-468 cells assessed as cell growth at 10 uM incubated for 48 hrs by sulforhodamine B assay; settings: MDA-MB-468, 48 h, read-out: Activity
A549 = experiment: Cytotoxicity against human A549 cells assessed as cell growth at 10 uM incubated for 48 hrs by sulforhodamine B assay; settings: A549, 48 h, read-out: Activity
[16] = Cytotoxicity against human HCT116 cells assessed as cell growth at 10 uM incubated for 48 hrs by sulforhodamine B assay; settings: HCT-116, 48 h, read-out: Activity
[17] = Cytotoxicity against human SF295 cells assessed as cell growth at 10 uM incubated for 48 hrs by sulforhodamine B assay; settings: SF-295, 48 h, read-out: Activity
[18] = Cytotoxicity against human SNB19 cells assessed as cell growth at 10 uM incubated for 48 hrs by sulforhodamine B assay; settings: SNB-19, 48 h, read-out: Activity
[19] = Cytotoxicity against human RXF393 cells assessed as cell growth at 10 uM incubated for 48 hrs by sulforhodamine B assay; settings: RXF 393, 48 h, read-out: Activity
MCF7 = experiment: Cytotoxicity against human MCF7 cells assessed as cell growth at 10 uM incubated for 48 hrs by sulforhodamine B assay; settings: MCF7, 48 h, read-out: Activity
T47D = experiment: Cytotoxicity against human T47D cells assessed as cell growth at 10 uM incubated for 48 hrs by sulforhodamine B assay; settings: read-out: Activity
MDA-MB-231 = experiment: Cytotoxicity against human MDA-MB-231 cells assessed as cell growth at 10 uM incubated for 48 hrs by sulforhodamine B assay; settings: MDA-MB-231, 48 h, read-out: Activity
[20] = Cytotoxicity against human Hs578T cells assessed as cell growth at 10 uM incubated for 48 hrs by sulforhodamine B assay; settings: Hs-578T, read-out: Activity
SR [21] = experiment: Growth inhibition of human SR cells incubated for 48 hrs by sulforhodamine B assay
K562 = experiment: Growth inhibition of human K562 cells incubated for 48 hrs by sulforhodamine B assay; settings: K562, 48 h
NCI-H322M [22] = experiment: Cytotoxicity against human NCI-H322M cells assessed as cell growth at 10 uM incubated for 48 hrs by sulforhodamine B assay; settings: read-out: Activity
[23] = Cytotoxicity against human UACC257 cells assessed as cell growth at 10 uM incubated for 48 hrs by sulforhodamine B assay; settings: UACC-257, 48 h, read-out: Activity
[24] = Cytotoxicity against human OVCAR3 cells assessed as cell growth at 10 uM incubated for 48 hrs by sulforhodamine B assay; settings: OVCAR-3, 48 h, read-out: Activity
[25] = read-out: LC50 (the source's name)

Cc1cc(=O)oc2c(C)c(O)c(-c3ccnc(N)n3)cc12
GI50 (NCI-H322M [1]): 59 µM
TGI (NCI-H322M [1]): > 100 µM
CC50 (NCI-H322M [1]): > 100 µM
GI50 [2]: 8.45 µM
TGI [2]: > 100 µM
CC50 [2]: > 100 µM
GI50 (KM12): > 100 µM
TGI (KM12): > 100 µM
CC50 (KM12): > 100 µM
GI50 [3]: 3.6 µM
TGI [3]: > 100 µM
CC50 [3]: > 100 µM
GI50 [4]: 8.33 µM
TGI [4]: > 100 µM
CC50 [4]: > 100 µM
GI50 [5]: 5.08 µM
TGI [5]: 92.9 µM
CC50 [5]: > 100 µM
GI50 (U-251): 8.59 µM
TGI (U-251): > 100 µM
CC50 (U-251): > 100 µM
GI50 (SK-MEL-28): > 100 µM
TGI (SK-MEL-28): > 100 µM
CC50 (SK-MEL-28): > 100 µM
GI50 [6]: > 100 µM
TGI [6]: > 100 µM
CC50 [6]: > 100 µM
GI50 [7]: 6.95 µM
TGI [7]: > 100 µM
CC50 [7]: > 100 µM
GI50 [8]: 66.1 µM
TGI [8]: > 100 µM
CC50 [8]: > 100 µM
GI50 (A498): 1.44 µM
TGI (A498): > 100 µM
CC50 (A498): > 100 µM
GI50 (ACHN): 2.39 µM
TGI (ACHN): > 100 µM
CC50 (ACHN): > 100 µM
GI50 [9]: 4.7 µM
TGI [9]: 59.9 µM
CC50 [9]: > 100 µM
GI50 [10]: 2.59 µM
TGI [10]: > 100 µM
CC50 [10]: > 100 µM
GI50 [11]: 32.7 µM
TGI [11]: > 100 µM
CC50 [11]: > 100 µM
GI50 [12]: 13.1 µM
TGI [12]: > 100 µM
CC50 [12]: > 100 µM
GI50 [13]: 32 µM
TGI [13]: > 100 µM
CC50 [13]: > 100 µM
growth at 10 µM [14]: 30.5%
growth at 10 µM (SR [15]): 9.17%
growth at 10 µM (NCI-H522): 47%
growth at 10 µM (MDA-MB-468): 40.4%
growth at 10 µM (A549): 39.5%
growth at 10 µM [16]: 15.8%
growth at 10 µM [17]: 28.7%
growth at 10 µM [18]: 64.1%
growth at 10 µM [19]: 55.7%
growth at 10 µM (MCF7): 22.1%
growth at 10 µM (T47D): 53.7%
growth at 10 µM (MDA-MB-231): 69%
growth at 10 µM [20]: 51%

Cc1cc(=O)oc2c(C)c(O)c(-c3cc4ccc(F)cc4[nH]3)cc12
GI50 (SR [21]): 3.24 µM
TGI (SR [21]): 16.9 µM
CC50 (SR [21]; [25]): > 100 µM
GI50 (K562): 2.68 µM
TGI (K562): 23 µM
CC50 (K562; [25]): > 100 µM
GI50 (NCI-H322M [1]): 3.23 µM
TGI (NCI-H322M [1]): 13.1 µM
CC50 (NCI-H322M [1]): 88.3 µM
GI50 [2]: 3.09 µM
TGI [2]: 13.6 µM
CC50 [2]: 63.1 µM
GI50 (KM12): 3.03 µM
TGI (KM12): 12.4 µM
CC50 (KM12): 42 µM
GI50 [3]: 3.54 µM
TGI [3]: 15.2 µM
CC50 [3]: 52.2 µM
GI50 [4]: 2.94 µM
TGI [4]: 14.1 µM
CC50 [4]: 59.4 µM
GI50 [5]: 5.7 µM
TGI [5]: 24 µM
CC50 [5]: 78.3 µM
GI50 (U-251): 3.05 µM
TGI (U-251): 13.2 µM
CC50 (U-251): 43.4 µM
GI50 (SK-MEL-28): 4.58 µM
TGI (SK-MEL-28): 18.3 µM
CC50 (SK-MEL-28): 64.2 µM
GI50 [6]: 3.34 µM
TGI [6]: 16.7 µM
CC50 [6]: 49.7 µM
GI50 [7]: 3.88 µM
TGI [7]: 24 µM
CC50 [7]: > 100 µM
GI50 [8]: 2.82 µM
TGI [8]: 12.7 µM
CC50 [8]: > 100 µM
GI50 (A498): 1.93 µM
TGI (A498): 6.21 µM
CC50 (A498): 25.8 µM
GI50 (ACHN): 2.64 µM
TGI (ACHN): 10.6 µM
CC50 (ACHN): 74.7 µM
GI50 [9]: 3.91 µM
TGI [9]: 14.7 µM
CC50 [9]: 42.3 µM
GI50 [10]: 1.71 µM
TGI [10]: 6.21 µM
CC50 [10]: 25.5 µM
GI50 [11]: 5.38 µM
TGI [11]: 16.2 µM
CC50 [11]: 48.1 µM
GI50 [12]: 3.89 µM
TGI [12]: 17.5 µM
CC50 [12]: 72.9 µM
GI50 [13]: 2.67 µM
TGI [13]: 14.2 µM
CC50 [13]: 89.3 µM
growth at 10 µM [14]: 8.76%
growth at 10 µM (SR [15]): 28.4%
growth at 10 µM (NCI-H522): 15%
growth at 10 µM (MDA-MB-468): 16.7%
growth at 10 µM (A549): 39.3%
growth at 10 µM [16]: 22.9%
growth at 10 µM [17]: 33%
growth at 10 µM [18]: 31.6%
growth at 10 µM [19]: 64.4%
growth at 10 µM (MCF7): 28.3%
growth at 10 µM (T47D): 27.2%
growth at 10 µM (MDA-MB-231): 59.3%
growth at 10 µM [20]: 42.1%
growth at 10 µM (NCI-H322M [22]): 53.4%
growth at 10 µM [23]: 30.4%
growth at 10 µM [24]: 16.5%

Source: ChEMBL document CHEMBL3734723, “Synthesis and anticancer activity of 6-heteroarylcoumarins” (2015)
